Laboratory results published in patent US10052320B2, “Substituted quinoxalines as FGFR kinase inhibitors” (ASTEX THERAPEUTICS LIMITED, priority 2011, dated 2018).

Legend:
[1] = target: Ba/F3-KDR-transfected cells (Homo sapiens, UniProt P35968); experiment: Ba/F3-KDR (minus IL3) cellular proliferation assay, Alamar Blue; format: cell-based
Description: (§1) Ba/F3-KDR (Minus IL3 or Plus IL3) (Cellular Proliferation Assay)
(§2) In a 384 well plate, 100 nl of compound dilution in DMSO was sprayed before adding 50 μl cell culture medium (phenol red free RPMI-1640, 10% FBS, 2 mM L-Glutamine and 50 μg/ml Gentamycin) containing 20000 cells per well of Ba/F3-KDR-transfected cells. Cells were put in an incubator at 37° C. and 5% CO2. After 24 hours, 10 μl of Alamar Blue solution (0.5 mM K3Fe(CN)6, 0.5 mM KaFe(CN)6, 0.15 mM Resazurin and 100 mM Phosphate Buffer) was added to the wells, incubated for 4 hours at 37° C. and 5% CO2 before RFU's (Relative Fluorescence Units) (ex. 540 nm., em. 590 nm.) were measured in a flurorescence plate reader.
(§3) As a counterscreen the same experiment was performed in the presence of 10 ng/ml murine IL3.
as §2, with “a 96” for “a 384”, “plate, 180” for “plate, 100 nl of compound dilution in DMSO was sprayed before adding 50”, “containing 10000” for “containing 20000”, “Ba/F3-KDR-transfected cells were pipette and 20 μl of compound dilution in DMSO was added.” for “Ba/F3-KDR-transfected cells.”, “hours, 40” for “hours, 10”, “CO2” for “CO2 before”

[2] = target: FGFR3 (h) (Homo sapiens, UniProt P22607); experiment: FGFR3 (enzymatic assay), TR-FRET; format: biochemical; details: read-out: FGFR 3 pIC50 (converted)
Description: (§4) In a final reaction volume of 30 μL, FGFR3 (h) (40 ng/ml) was incubated with 50 mM HEPES pH 7.5, 6 mM MnCl2, 1 mM DTT, 0.1 mM Na3VO4, 0.01% Triton-X-100, 500 nM Btn-Flt3 and 25 μM ATP in the presence of compound (1% DMSO final). […] Time-Resolved Fluorescence Resonance Energy Transfer (TR-FRET) signal (ex340 nm. Em 620 nm, em 655 nm) was measured afterwards and results are expressed in RFU (Relative Fluorescence Units).

[3] = target: FGFR4 (h) (Homo sapiens, UniProt P22455); experiment: FGFR4 (enzymatic assay), TR-FRET; format: biochemical; details: read-out: FGFR 4 pIC50 (converted)
Description: as §4, with “FGFR4” for “FGFR3”, “(60” for “(40”, “5” for “25”

[4] = tested on: Ba/F3-KDR-transfected cells in the presence of 10 ng/ml murine IL3; experiment: Ba/F3-KDR (plus IL3) cellular proliferation counterscreen, Alamar Blue; format: cell-based; details: plus 10 ng/ml murine IL3; for IC50: Mus musculus, read-out: BAF3-KDR (PLUS IL3) 384 well pIC50 (converted)
Description: as §1
[…] Cells were put in an incubator at 37° C. and 5% CO2. After 24 hours, 10 μl of Alamar Blue solution (0.5 mM K3Fe(CN)6, 0.5 mM KaFe(CN)6, 0.15 mM Resazurin and 100 mM Phosphate Buffer) was added to the wells, incubated for 4 hours at 37° C. and 5% CO2 before RFU's (Relative Fluorescence Units) (ex. 540 nm., em. 590 nm.) were measured in a flurorescence plate reader.
as §3
as §2, with “a 96” for “a 384”, “plate, 180” for “plate, 100 nl of compound dilution in DMSO was sprayed before adding 50”, “containing 10000” for “containing 20000”, “Ba/F3-KDR-transfected cells were pipette and 20 μl of compound dilution in DMSO was added.” for “Ba/F3-KDR-transfected cells.”, “hours, 40” for “hours, 10”, “CO2” for “CO2 before”

[5] = tested on: Ba/F3-FGFR3-transfected cells in the presence of 10 ng/ml murine IL3; experiment: Ba/F3-FGFR3 (plus IL3) cellular proliferation counterscreen, Alamar Blue; format: cell-based; details: plus 10 ng/ml murine IL3, 384 well; for IC50: Mus musculus, read-out: BAF3-FGFR 3 (PLUS IL3) 384 well pIC50 (converted)
Description: Ba/F3-FGFR3 (Minus IL3 or Plus IL3) (Cellular Proliferation Assay)
as §2, with “Ba/F3-FGFR3-transfected” for “Ba/F3-KDR-transfected”
as §3
as §2, with “a 96” for “a 384”, “plate, 180” for “plate, 100 nl of compound dilution in DMSO was sprayed before adding 50”, “containing 10000” for “containing 20000”, “of Ba/F3-FGFR3-transfected cells were pipette and 20 μl of compound dilution in DMSO was added.” for “of Ba/F3-KDR-transfected cells.”, “hours, 40” for “hours, 10”

Chain of FGFR4 (h) (P22455 22-802): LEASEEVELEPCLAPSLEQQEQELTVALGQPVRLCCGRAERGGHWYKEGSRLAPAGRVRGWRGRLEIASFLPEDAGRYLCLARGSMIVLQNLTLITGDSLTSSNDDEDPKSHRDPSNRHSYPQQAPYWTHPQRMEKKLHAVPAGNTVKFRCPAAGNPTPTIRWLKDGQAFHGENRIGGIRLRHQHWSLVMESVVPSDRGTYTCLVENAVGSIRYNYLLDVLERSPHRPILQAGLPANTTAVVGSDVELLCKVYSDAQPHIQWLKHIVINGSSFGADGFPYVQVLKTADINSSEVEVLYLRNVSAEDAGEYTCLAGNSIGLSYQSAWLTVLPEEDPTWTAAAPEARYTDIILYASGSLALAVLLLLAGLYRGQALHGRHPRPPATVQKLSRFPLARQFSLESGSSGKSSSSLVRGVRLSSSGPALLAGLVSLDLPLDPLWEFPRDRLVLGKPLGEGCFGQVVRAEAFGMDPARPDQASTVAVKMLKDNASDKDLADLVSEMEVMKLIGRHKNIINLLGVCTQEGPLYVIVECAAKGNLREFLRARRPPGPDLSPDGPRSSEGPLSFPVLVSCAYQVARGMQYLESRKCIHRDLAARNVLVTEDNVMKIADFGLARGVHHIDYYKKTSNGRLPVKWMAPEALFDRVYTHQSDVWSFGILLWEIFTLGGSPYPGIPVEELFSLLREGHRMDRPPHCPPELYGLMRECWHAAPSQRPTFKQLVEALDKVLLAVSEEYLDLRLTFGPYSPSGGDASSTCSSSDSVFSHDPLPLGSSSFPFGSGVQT
Chain of Ba/F3-KDR-transfected cells (P35968 whole entry, change not shown): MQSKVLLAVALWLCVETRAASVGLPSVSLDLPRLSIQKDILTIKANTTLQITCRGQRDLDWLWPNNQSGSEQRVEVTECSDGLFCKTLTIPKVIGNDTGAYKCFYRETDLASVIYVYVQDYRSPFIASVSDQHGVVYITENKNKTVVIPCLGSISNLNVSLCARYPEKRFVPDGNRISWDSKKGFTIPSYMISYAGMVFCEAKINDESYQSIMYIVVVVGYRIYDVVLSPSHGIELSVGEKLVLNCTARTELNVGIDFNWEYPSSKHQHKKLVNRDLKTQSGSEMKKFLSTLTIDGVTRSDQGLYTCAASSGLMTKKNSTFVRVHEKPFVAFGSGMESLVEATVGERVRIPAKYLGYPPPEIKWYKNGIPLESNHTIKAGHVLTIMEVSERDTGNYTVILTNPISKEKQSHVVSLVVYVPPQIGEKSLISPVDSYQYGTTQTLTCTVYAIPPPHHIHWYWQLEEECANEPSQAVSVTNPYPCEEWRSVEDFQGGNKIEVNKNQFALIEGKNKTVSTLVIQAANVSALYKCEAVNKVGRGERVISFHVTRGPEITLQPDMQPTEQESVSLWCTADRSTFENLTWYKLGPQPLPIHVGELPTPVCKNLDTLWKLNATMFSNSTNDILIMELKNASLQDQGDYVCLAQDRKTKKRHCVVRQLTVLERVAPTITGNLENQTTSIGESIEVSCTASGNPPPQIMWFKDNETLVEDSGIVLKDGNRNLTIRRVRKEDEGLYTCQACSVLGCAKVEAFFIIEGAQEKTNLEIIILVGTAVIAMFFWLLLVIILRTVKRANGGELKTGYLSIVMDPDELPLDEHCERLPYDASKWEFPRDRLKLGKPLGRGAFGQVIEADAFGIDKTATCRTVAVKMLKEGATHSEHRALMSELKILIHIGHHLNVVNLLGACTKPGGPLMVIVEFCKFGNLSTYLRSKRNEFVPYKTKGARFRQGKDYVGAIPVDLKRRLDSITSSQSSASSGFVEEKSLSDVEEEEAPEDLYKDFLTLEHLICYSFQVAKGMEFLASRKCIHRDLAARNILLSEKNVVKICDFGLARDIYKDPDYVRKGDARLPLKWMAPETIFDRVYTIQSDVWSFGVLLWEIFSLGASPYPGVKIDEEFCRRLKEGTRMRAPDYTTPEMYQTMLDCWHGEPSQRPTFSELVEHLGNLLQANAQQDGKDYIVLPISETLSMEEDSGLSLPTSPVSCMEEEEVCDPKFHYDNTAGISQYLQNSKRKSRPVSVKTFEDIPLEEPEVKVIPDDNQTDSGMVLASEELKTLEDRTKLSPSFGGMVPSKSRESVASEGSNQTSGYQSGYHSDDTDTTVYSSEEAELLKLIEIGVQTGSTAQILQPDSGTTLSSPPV
Chain of FGFR3 (h) (P22607 23-806): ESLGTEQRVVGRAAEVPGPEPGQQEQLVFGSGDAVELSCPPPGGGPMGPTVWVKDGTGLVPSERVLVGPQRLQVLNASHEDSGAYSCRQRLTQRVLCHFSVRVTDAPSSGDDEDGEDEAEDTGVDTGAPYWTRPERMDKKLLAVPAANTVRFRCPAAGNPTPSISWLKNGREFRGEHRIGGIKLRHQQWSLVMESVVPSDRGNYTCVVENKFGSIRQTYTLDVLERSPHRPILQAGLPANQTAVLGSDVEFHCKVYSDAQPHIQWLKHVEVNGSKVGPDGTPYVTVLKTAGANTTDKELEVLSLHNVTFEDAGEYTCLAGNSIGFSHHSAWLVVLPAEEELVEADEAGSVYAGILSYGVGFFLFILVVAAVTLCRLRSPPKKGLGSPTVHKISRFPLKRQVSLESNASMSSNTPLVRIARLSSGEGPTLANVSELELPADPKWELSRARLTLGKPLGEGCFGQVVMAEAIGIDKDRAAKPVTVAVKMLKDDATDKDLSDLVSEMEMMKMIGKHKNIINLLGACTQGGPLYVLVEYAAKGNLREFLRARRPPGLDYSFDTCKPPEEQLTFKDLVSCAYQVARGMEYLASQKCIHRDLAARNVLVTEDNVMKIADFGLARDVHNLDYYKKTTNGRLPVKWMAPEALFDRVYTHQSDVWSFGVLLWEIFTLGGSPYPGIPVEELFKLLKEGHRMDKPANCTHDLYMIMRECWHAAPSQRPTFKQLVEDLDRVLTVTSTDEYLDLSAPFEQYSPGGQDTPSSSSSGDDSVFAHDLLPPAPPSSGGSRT

SMILES | BAF3-KDR (MIN IL3) 384 well pIC50 ([1]; minus IL3) | IC50 [2] [nM] | IC50 [3] [nM] | melting point [°C] | BAF3-KDR (MIN IL3) 384 well pIC50 ([1]; minus IL3, 384 well) | BAF3-KDR (PLUS IL3) 384 well pIC50 [4] | BAF3-FGFR 3 (PLUS IL3) 384 well pIC50 [5] | IC50 [4] [nM] | IC50 [5] [nM]
COCC(CN(c1cc(OC)cc(OC)c1)c1ccc2ncc(-c3cccnc3)nc2c1)OC(C)=O (single isomer, unassigned) [Compound 52] | <5 | 28.8 | 407 | – | – | – | – | – | –
COCC(CN(c1cc(OC)cc(OC)c1)c1ccc2ncc(-c3cccnc3)nc2c1)OC(C)=O (single isomer, unassigned) [Compound 76] | <5 | 5.75 | 107 | – | – | <5 | <5 | – | –
COc1cc(OC)cc(N(CC#Cc2ncccn2)c2ccc3ncc(-c4cccnc4)nc3c2)c1 [Compound 2] | <5 | 56.2 | 195 | 184 | – | – | – | – | –
COc1cc(OC)cc(N(CCCNCC(F)(F)F)c2ccc3ncc(-c4ccn(C)c4)nc3c2)c1 [Compound 5] | 5.07 | 9.55 | – | – | – | – | – | – | –
COc1cc(OC)cc(N(CCO)c2ccc3ncc(-c4ccc(N5CCOCC5)nc4)nc3c2)c1 [Compound 19] | <5 | 1.95 | 17.8 | 193 | – | – | – | – | –
COc1cc(OC)cc(N(CCO)c2ccc3ncc(-n4cnc(CO)c4)nc3c2)c1 [Compound 38] | <5 | 10.5 | 93.3 | 215 | – | – | – | – | –
COc1cc(OC)cc(N(CCCO)c2ccc3ncc(-c4ccnc(C(=O)N5CCOCC5)c4)nc3c2)c1 [Compound 43] | 5.07 | 3.8 | 45.7 | 190 | – | – | – | – | –
COc1cc(OC)cc(N(CCCNCC(=O)O)c2ccc3ncc(-c4ccnc(C(=O)NCCCCN)c4)nc3c2)c1 [Compound 44] | <5 | 11.2 | 51.3 | 64 | – | – | – | – | –
COc1cc(OC)cc(N(CCN2CCNCC2)c2ccc3ncc(-c4ccc(N)nc4)nc3c2)c1 [Compound 59] | 5.66 | 9.12 | 64.6 | 111 | – | – | – | – | –
COc1cc(OC)cc(N(CCNC(C)C)c2ccc3ncc(N4CCC(CN)CC4)nc3c2)c1 [Compound 67] | 5 | 16.6 | 200 | – | – | – | – | > 10000 | > 10000
COc1cc(OC)cc(N(CCNC(C)C)c2ccc3ncc(-n4cnc(CO)c4)nc3c2)c1 [Compound 77] | 5.29 | 12 | 52.5 | – | – | – | – | > 10000 | > 10000
COc1cc(OC)cc(N(CCO)c2ccc3ncc(N4CCC(CN)CC4)nc3c2)c1 [Compound 84] | <5 | 40.7 | 617 | 159 | – | – | – | – | –
COc1cc(OC)cc(N(CC2CC2)c2ccc3ncc(-c4ccc5c(c4)OCO5)nc3c2)c1 [Compound 87] | – | 209 | 3550 | 144 | <5.4 | – | – | – | –
COc1cc(OC)cc(N(CCCO)c2ccc3ncc(-c4ccnc(C(=O)NCCCCCN)c4)nc3c2)c1 [Compound 130] | <5 | 11.2 | 151 | 161 | – | – | – | – | –
COc1cc(OC)cc(N(CCCNC(C)C)c2ccc3ncc(-c4ccnc(NC(=O)NC(C)C)c4)nc3c2)c1 [Compound 131] | 5.37 | 5.89 | 21.4 | 155 | – | – | – | – | –
COc1cc(OC)cc(N(CCCNCCCO)c2ccc3ncc(-c4ccnc(C(=O)NCCCCN)c4)nc3c2)c1 [Compound 132] | 5.04 | 18.6 | 117 | – | – | – | – | – | –
COc1cc(OC)cc(N(CCCO)c2ccc3ncc(-c4ccnc(-c5ccnc(Cl)c5)c4)nc3c2)c1 [Compound 133] | <5 | 50.1 | > 1000 | 172 | – | – | – | – | –

Second part, led by results:

BAF3-KDR (MIN IL3) 384 well pIC50 ([1]; minus IL3) | IC50 [2] [nM] | IC50 [3] [nM] | melting point [°C] | BAF3-KDR (MIN IL3) 384 well pIC50 ([1]; minus IL3, 384 well) | SMILES | BAF3-KDR (PLUS IL3) 384 well pIC50 [4] | BAF3-FGFR 3 (PLUS IL3) 384 well pIC50 [5] | IC50 [4] [nM] | IC50 [5] [nM]
5.33 | 2.45 | 28.8 | 179 | – | COc1cc(OC)cc(N(CCCO)c2ccc3ncc(-c4cnc(N5CCN(C)CC5)c(C)c4)nc3c2)c1 [Compound 135] | – | – | – | –
<5 | 10.2 | 97.7 | 175 | – | COc1cc(OC)cc(N(CCCO)c2ccc3ncc(-c4ccnc(Cl)c4)nc3c2)c1 [Compound 136] | – | – | – | –
5.67 | 8.51 | 42.7 | 172 | – | COc1cc(OC)cc(N(CCCNC(C)C)c2ccc3ncc(-c4ccnc(NC(=O)OC(C)(C)C)c4)nc3c2)c1 [Compound 137] | – | – | – | –
<5 | 16.2 | 178 | – | – | COc1cc(OC)cc(N(CCO)c2ccc3ncc(-c4ccnc(C(=O)NCCCCCN)c4)nc3c2)c1 [Compound 138] | – | – | – | –
5.33 | 2.51 | 9.55 | – | – | COc1cc(OC)cc(N(CCCNC(C)C)c2ccc3ncc(-c4ccnc(N)c4)nc3c2)c1 [Compound 143] | – | – | – | –
<5 | 56.2 | 468 | 128 | – | COc1cc(OC)cc(N(CCCNCC(F)(F)F)c2ccc3ncc(-c4ccnc(F)c4)nc3c2)c1 [Compound 144] | – | – | – | –
<5 | 12.3 | 49 | – | – | COc1cc(OC)cc(N(CCNC(C)C)c2ccc3ncc(-c4ccnc(C(=O)NCCCN)c4)nc3c2)c1 [Compound 146] | – | – | – | –
<5 | 61.7 | 603 | 87 | – | COc1cc(OC)cc(N(CCCNCC(F)(F)F)c2ccc3ncc(-c4ccnc(C(=O)NCCCN)c4)nc3c2)c1 [Compound 148] | – | – | – | –
<5 | 35.5 | 166 | 115 | – | COc1cc(OC)cc(N(CCCO)c2ccc3ncc(-c4cccnc4F)nc3c2)c1 [Compound 149] | – | – | – | –
